Measured values taken from patent US9649314B2, “Pyrimido[4,5-b]quinoline-4,5(3H,10H)-diones” (NOVARTIS AG, priority 2012, dated 2017).
Like-named read-outs stand apart in the source and are kept apart here.

Test system: CFTR-Y122X
Assay: CFTR-Y122X assay (dual reporter isogenic Hek293 cell lines, Renilla luminescence readthrough)
Type: cell-based
Details: Homo sapiens
Source text: Activity of compounds of the present invention was examined in recombinant, dual reporter isogenic Hek293 cell lines (“CFTR-Y122X assay”). The engineered reporter constructs contained the 18 bp sequence stretch corresponding to a common Y122X PTC mutation in CFTR class I mutant patients (see Sermet-Gaudelus, BMC Medicine, 2007, 5(5)). Instead of a tyrosine (Y) in position 122 of the CFTR protein a TGA stop codon interrupts the open reading frame (Y122X) of the corresponding mRNA. This TGA stop codon triplet (followed by the pyrimidine base cytosine) is permissive to aminoglycoside mediated translational readthrough which served as positive control for high throughput screening. A corresponding TAA stop codon variant and a wildtype non mutated construct was used for confirmation and counter screening. The CFTR sequence was sandwiched between an eGFP reporter, and a triple myc tag sequence fused to a full length Renilla reporter. All sequences, including an intron containing one positioned pre-eGFP (b-globin intron) were cloned in frame. The corresponding expression constructs were stably expressed in the isogenic HEK-R4 cell host (Invitrogen Incorp.) and selected by blasticidin resistance. The isogenic integration of the construct minimizes gene dose effects and improves assay reproducibility. Stably integrated single cell derived clones were selected and characterized for aminoglycoside mediated readthrough. […] Readthrough of Y122X accumulates an intracellular localized fusion protein approximately 65.5 kDa in size as controlled by western blot analysis and immunofluorescence using an anti-renilla antibody. The eGFP reporter pre-PTC mutation serves as visual control for genetic stability of the screening clones and minimizes protein degradation of small fusion protein amounts. In the assay, compound concentration was 10 μM. In miniaturized 1536 well format 2000 cells were dispensed in 4 μl/well and incubated for 24 h at 37° C., 5% CO2. 40 nl compounds were placed on the cells with control wells containing 1 ul Paramomycin and 14.4 mM final concentration. Compounds were incubated for 24 h. Renilla Glo substrate (2.5 ul) was added and plates were centrifuged and processed for luminescence measurement using various readers. Activity calculation was done using the equation: A1 (%)=100*(S−NC)/(AC−NC) where AC, NC and S correspond to active controls (injection of Stimulation buffer=100% stimulation), neutral controls (buffer injection which Iloprost EC10) and screening samples (S). NC corresponds to 0% activity whereas AC is 100% activity (14 mM paromomycin). False positive artefacts were removed in confirmation and validation screening using the same assay format followed by counterscreening using the respective wildtype construct (w/o PTC mutation) cell model. Compounds were tested up to 100 μM compound concentration.

[1] = HEK293, at the above dose ranges (up to 100 μM), read-out: suppression, % of paromomycin reference activity
[2] = HEK293, nonsense mutation suppression, 24 h incubation
[3] = HEK293, nonsense mutation suppression, 100% = 14 mM paromomycin, 24 h incubation, tested up to 100 μM, read-out: Amax [%]

Cn1c2ccccc2c(=O)c2c(=O)n(C3CCCCC3)c(C3CCCCC3)nc21 [2,3-dicyclohexyl-10-methylpyrimido[4,5-b]quinoline-4,5(3H,10H)-dione]
Emax [1]: < 5%

Cn1c2ccccc2c(=O)c2c(=O)n(C3CCCCCC3)c(-c3ccc(C(C)(C)C)cc3)nc21 [2-(4-(tert-butyl)phenyl)-3-cycloheptyl-10-methylpyrimido[4,5-b]quinoline-4,5(3H,10H)-dione]
Emax [1]: < 5%

Cn1c2ccccc2c(=O)c2c(=O)n(C3CCCCC3)c(-c3ccc(C(C)(C)C)cc3)nc21 [2-(4-(tert-butyl)phenyl)-3-cyclohexyl-10-methylpyrimido[4,5-b]quinoline-4,5(3H,10H)-dione]
Emax [1]: < 5%

Cn1c2ccccc2c(=O)c2c(=O)n(C3CCCC3)c(-c3ccc(C(C)(C)C)cc3)nc21 [2-(4-(tert-butyl)phenyl)-3-cyclopentyl-10-methylpyrimido[4,5-b]quinoline-4,5(3H,10H)-dione]
Emax [1]: < 5%

Cn1c2ccccc2c(=O)c2c(=O)n(C3CCCCCC3)c(-c3ccc(Cl)cc3)nc21 [2-(4-chlorophenyl)-3-cycloheptyl-10-methylpyrimido[4,5-b]quinoline-4,5(3H,10H)-dione]
Emax [1]: < 5%

Cn1c2ccccc2c(=O)c2c(=O)n(C3CCCC3)c(-c3ccc(Cl)cc3)nc21 [2-(4-chlorophenyl)-3-cyclopentyl-10-methylpyrimido[4,5-b]quinoline-4,5(3H,10H)-dione]
Emax [1]: < 5%

Cc1cc(C)cc(-n2c(C3CCCCC3)nc3c(c(=O)c4ccccc4n3C)c2=O)c1 [2-cyclohexyl-3-(3,5-dimethylphenyl)-10-methylpyrimido[4,5-b]quinoline-4,5(3H,10H)-dione]
Emax [1]: < 5%

CC(C)c1nc2c(c(=O)c3ccccc3n2C)c(=O)n1C1CCOC1 (stereo not drawn) [2-isopropyl-10-methyl-3-(tetrahydrofuran-3-yl)pyrimido[4,5-b]quinoline-4,5(3H,10H)-dione]
Emax [1]: < 5%

CC(C)c1nc2c(c(=O)c3cc(C(F)(F)F)ccc3n2C)c(=O)n1-c1ccccc1 [2-isopropyl-10-methyl-3-phenyl-7-(trifluoromethyl)pyrimido[4,5-b]quinoline-4,5(3H,10H)-dione]
Emax [1]: < 5%

Cn1c2ccccc2c(=O)c2c(=O)n(-c3cccc(Cl)c3)c(C3CCCCC3)nc21 [3-(3-chlorophenyl)-2-cyclohexyl-10-methylpyrimido[4,5-b]quinoline-4,5(3H,10H)-dione]
Emax [1]: < 5%

Cn1c2ccccc2c(=O)c2c(=O)n(C3CCCCCC3)c(-c3ccc(Cl)cc3Cl)nc21 [3-cycloheptyl-2-(2,4-dichlorophenyl)-10-methylpyrimido[4,5-b]quinoline-4,5(3H,10H)-dione]
Emax [1]: < 5%

Cn1c2ccccc2c(=O)c2c(=O)n(C3CCCCCC3)c(-c3ccccc3F)nc21 [3-cycloheptyl-2-(2-fluorophenyl)-10-methylpyrimido[4,5-b]quinoline-4,5(3H,10H)-dione]
Emax [1]: < 5%

Cn1c2ccccc2c(=O)c2c(=O)n(C3CCCCCC3)c(-c3ccc(F)cc3)nc21 [3-cycloheptyl-2-(4-fluorophenyl)-10-methylpyrimido[4,5-b]quinoline-4,5(3H,10H)-dione]
Emax [1]: < 5%

Cn1c2ccccc2c(=O)c2c(=O)n(C3CCCCCC3)c(C3CCCCC3)nc21 [3-cycloheptyl-2-cyclohexyl-10-methylpyrimido[4,5-b]quinoline-4,5(3H,10H)-dione]
Emax [1]: < 5%

Cn1c2ccccc2c(=O)c2c(=O)n(C3CCCCCC3)c(-c3ccc([N+](=O)[O-])cc3)nc21 [3-cycloheptyl-10-methyl-2-(4-nitrophenyl)pyrimido[4,5-b]quinoline-4,5(3H,10H)-dione]
Emax [1]: < 5%

Cn1c2ccccc2c(=O)c2c(=O)n(C3CCCCC3)c(-c3ccc(Cl)cc3Cl)nc21 [3-cyclohexyl-2-(2,4-dichlorophenyl)-10-methylpyrimido[4,5-b]quinoline-4,5(3H,10H)-dione]
Emax [1]: < 5%

Cn1c2ccccc2c(=O)c2c(=O)n(C3CCCC3)c(C3CCCN(C4CCCC4)C3)nc21 (stereo not drawn) [3-cyclopentyl-2-(1-cyclopentylpiperidin-3-yl)-10-methylpyrimido[4,5-b]quinoline-4,5(3H,10H)-dione]
Emax [1]: < 5%

CC(C)Cn1c2ccccc2c(=O)c2c(=O)n(-c3ccccc3)c(C(C)C)nc21 [10-isobutyl-2-isopropyl-3-phenylpyrimido[4,5-b]quinoline-4,5(3H,10H)-dione]
Emax [1]: < 5%

Cn1c2ccccc2c(=O)c2c(=O)n(-c3ccccc3)c(C3CCC3)nc21 [Example 1.1, 2-cyclobutyl-10-methyl-3-phenylpyrimido[4,5-b]quinoline-4,5(3H,10H)-dione]
Emax (HEK293, 24 h, read-out: Amax [%]): 258%
AC50 [2]: 1.3 µM

C=CCn1c2ccccc2c(=O)c2c(=O)n(-c3ccccc3)c(C(C)C)nc21 [Example 1.2, 10-allyl-2-isopropyl-3-phenylpyrimido[4,5-b]quinoline-4,5(3H,10H)-dione]
Emax [3]: 63%

CC(C)c1nc2[nH]c3ccccc3c(=O)c2c(=O)n1-c1ccccc1 [Example 1.3, 2-isopropyl-3-phenylpyrimido[4,5-b]quinoline-4,5(3H,10H)-dione]
Emax [3]: 279%
AC50 [2]: 6.1 µM

C=CCn1c2ccccc2c(=O)c2c(=O)n(-c3ccccc3)c(C3CCC3)nc21 [Example 1.4, 10-allyl-2-cyclobutyl-3-phenylpyrimido[4,5-b]quinoline-4,5(3H,10H)-dione]
Emax [3]: 279%
AC50 [2]: 4 µM

O=c1c2ccccc2[nH]c2nc(C3CCC3)n(-c3ccccc3)c(=O)c12 [Example 1.5, 2-cyclobutyl-3-phenylpyrimido[4,5-b]quinoline-4,5(3H,10H)-dione]
Emax [3]: 170%
AC50 [2]: 1.1 µM

CC1CC(c2nc3c(c(=O)c4ccccc4n3C)c(=O)n2-c2ccccc2)C1 (stereo not drawn) [Example 1.6, 10-methyl-2-(3-methylcyclobutyl)-3-phenylpyrimido[4,5-b]quinoline-4,5(3H,10H)-dione]
Emax [3]: 165%
AC50 [2]: 6.1 µM

Cn1c2ccccc2c(=O)c2c(=O)n(-c3ccccc3)c(C3CC(C)(C)C3)nc21 [Example 1.7, 2-(3,3-dimethylcyclobutyl)-10-methyl-3-phenylpyrimido[4,5-b]quinoline-4,5(3H,10H)-dione]
Emax [3]: 7%
AC50 [2]: 3.8 µM

COC1CC(c2nc3c(c(=O)c4ccccc4n3C)c(=O)n2-c2ccccc2)C1 (stereo not drawn) [Example 1.8, 2-(3-methoxycyclobutyl)-10-methyl-3-phenylpyrimido[4,5-b]quinoline-4,5(3H,10H)-dione]
Emax [3]: 18%
AC50 [2]: 11.8 µM

CCC(CC)c1nc2c(c(=O)c3ccccc3n2C)c(=O)n1-c1ccccc1 [Example 1.9, 10-methyl-2-(pentan-3-yl)-3-phenylpyrimido[4,5-b]quinoline-4,5(3H,10H)-dione]
Emax [3]: 200%
AC50 [2]: 11.7 µM

Cn1c2ccccc2c(=O)c2c(=O)n(-c3ccccc3)c(C3CCCC3)nc21 [Example 1.10, 2-cyclopentyl-10-methyl-3-phenylpyrimido[4,5-b]quinoline-4,5(3H,10H)-dione]
Emax [3]: 277%
AC50 [2]: 11 µM

Cn1c2ccccc2c(=O)c2c(=O)n(-c3ccccc3)c(C3CC3)nc21 [Example 1.11, 2-cyclopropyl-10-methyl-3-phenylpyrimido[4,5-b]quinoline-4,5(3H,10H)-dione]
Emax [3]: 188%
AC50 [2]: 9.1 µM

CCCCc1nc2c(c(=O)c3ccccc3n2C)c(=O)n1-c1ccccc1 [Example 1.12, 2-butyl-10-methyl-3-phenylpyrimido[4,5-b]quinoline-4,5(3H,10H)-dione]
Emax [3]: 391%
AC50 [2]: 4.8 µM

COCCCc1nc2c(c(=O)c3ccccc3n2C)c(=O)n1-c1ccccc1 [Example 1.13, 2-(3-methoxypropyl)-10-methyl-3-phenylpyrimido[4,5-b]quinoline-4,5(3H,10H)-dione]
Emax [3]: 13%

COCCCCc1nc2c(c(=O)c3ccccc3n2C)c(=O)n1-c1ccccc1 [Example 1.14, 2-(4-methoxybutyl)-10-methyl-3-phenylpyrimido[4,5-b]quinoline-4,5(3H,10H)-dione]
Emax [3]: 18%

CC(C)c1nc2c(c(=O)c3ccccc3n2C)c(=O)n1-c1ccccc1F [Example 1.15, 3-(2-fluorophenyl)-2-isopropyl-10-methylpyrimido[4,5-b]quinoline-4,5(3H,10H)-dione]
Emax [3]: 169%
AC50 [2]: 7.8 µM
